# T1: NDUFA9 subunit of Pp-CI (Komagataella pastoris, UniProt E1UWA9)
# T1 construct: gene nuem; supernumerary subunit within native 44-subunit mitochondrial complex I in cMSP26 nanodiscs
# T1 sequence (E1UWA9 36-384): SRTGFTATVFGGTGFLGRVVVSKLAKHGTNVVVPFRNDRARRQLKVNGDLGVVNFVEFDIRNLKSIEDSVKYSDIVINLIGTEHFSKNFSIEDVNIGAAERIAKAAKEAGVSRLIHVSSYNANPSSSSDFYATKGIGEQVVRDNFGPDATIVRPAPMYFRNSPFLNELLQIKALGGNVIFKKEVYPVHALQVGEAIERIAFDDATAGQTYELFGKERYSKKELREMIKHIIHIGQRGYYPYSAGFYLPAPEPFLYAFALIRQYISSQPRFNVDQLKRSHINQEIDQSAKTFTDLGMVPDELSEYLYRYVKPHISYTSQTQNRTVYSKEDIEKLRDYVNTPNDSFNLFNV
# T2: Pp-CI (flavin site; NDUFV1) (Komagataella pastoris, UniProt E1UWA7)
# T2 construct: gene nubm; native mitochondrial complex I, 44 subunits, purified in LMNG, in cMSP26 nanodiscs or proteoliposomes; with NADH-ubiquinone oxidoreductase 24 kDa subunit, mitochondrial; NADH-ubiquinone oxidoreductase 75 kDa subunit, mitochondrial
# T2 sequence (E1UWA7 17-473): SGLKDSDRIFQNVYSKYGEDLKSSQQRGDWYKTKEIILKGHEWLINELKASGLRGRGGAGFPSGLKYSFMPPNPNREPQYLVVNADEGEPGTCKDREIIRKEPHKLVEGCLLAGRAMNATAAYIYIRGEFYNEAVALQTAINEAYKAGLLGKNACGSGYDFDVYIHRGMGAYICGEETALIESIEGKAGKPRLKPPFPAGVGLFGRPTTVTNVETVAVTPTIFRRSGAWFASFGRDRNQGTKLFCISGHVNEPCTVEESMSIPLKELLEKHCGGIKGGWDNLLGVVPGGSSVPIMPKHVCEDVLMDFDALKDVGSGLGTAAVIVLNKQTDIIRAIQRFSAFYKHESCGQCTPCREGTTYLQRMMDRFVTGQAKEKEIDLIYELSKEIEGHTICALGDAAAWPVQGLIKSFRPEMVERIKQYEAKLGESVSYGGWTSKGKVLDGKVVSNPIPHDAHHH
# B1: NUQM, supernumerary interdomain bridge subunit of Pichia pastoris complex I (natural protein)
# chain: ALATIRNDLKLNFRFKADVLEKNVIRSILAETKNLEIDNKDKDLDEFKLYDLLSKMIKQRQDSAAIYLKEGSPDRFRQTGWNELREVDYITKYLEALPVASAEEIEAKVEPIVQSVLEEEGELKSPKEIFSRIPWKVVNQDWQASEGAVKNTVLRLYNLYKTDA
# How the values were obtained:
# Pp-CI (Q10-binding site) = molecular target: T3, Pp-CI (Q10-binding site) (Komagataella pastoris, UniProt E1UWA8+E1UWB5+E1UWC2); assay: NADH:O2 oxidoreduction with AOX, nanodiscs; type: biochemical; settings: 200 μM NADH; Q10 in bilayer; pH 7.5, 32°C
# T3 construct: gene nucm; native mitochondrial complex I, 44 subunits, purified in LMNG, in cMSP26 nanodiscs or proteoliposomes; with NADH-ubiquinone oxidoreductase 51 kDa subunit, mitochondrial; NADH-ubiquinone oxidoreductase 24 kDa subunit, mitochondrial
# NDUFA9 subunit of Pp-CI = molecular target: T1, NDUFA9 subunit of Pp-CI; assay: cryo-EM structure; type: binding; settings: state 1, closed, 2.8 Å
# [1] = molecular target: T2, Pp-CI (flavin site; NDUFV1); assay: cryo-EM structure; type: binding; settings: state 1, closed, 2.8 Å
# [2] = molecular target: T2, Pp-CI (flavin site; NDUFV1); assay: NADH:APAD+ oxidoreduction in proteoliposomes; type: biochemical; settings: 500 μM APAD+, 100 μM NADH; pH 7.5, 32°C
# [3] = molecular target: T2, Pp-CI (flavin site; NDUFV1); assay: NADH:APAD+ and NADH:O2 oxidoreduction, absorbance […]-380 nm; type: biochemical; settings: 100 μM NADH with 500 μM APAD+ or 200 μM NADH with Q10/AOX; pH 7.5, 32°C
# [4] = molecular target: Pichia pastoris complex I (NADH:ubiquinone oxidoreductase), the 43 subunits other than NUQM, with the flavoprotein subcomplex (Pichia pastoris (endogenous in strain X-33)); assay: cryo-EM structure; Pp-CI purified in LMNG and reconstituted into cMSP26 nanodiscs with DOPC:DOPE:CDL and Q10, 10 mM Mops pH 7.5, 50 mM KCl; Titan Krios 300 kV; particles classified into four states (state 1 closed with NUQM 2.80 A; state 3 open without NUQM 3.34 A)
# [5] = molecular target: Pichia pastoris complex I (NADH:ubiquinone oxidoreductase), the 43 subunits other than NUQM, with the flavoprotein subcomplex (Pichia pastoris (endogenous in strain X-33)); assay: cryo-EM structure; Pp-CI reconstituted into proteoliposomes (Pp-CI-PLs), 10 mM Mops pH 7.5, 50 mM KCl; Talos Arctica 200 kV; focused 3D classification on NUQM and on the flavoprotein; NUQM-bound map 4.7 A
molecule,measurement,setting,value
COC1=C(OC)C(=O)C(C/C=C(\C)CC/C=C(\C)CC/C=C(\C)CC/C=C(\C)CC/C=C(\C)CC/C=C(\C)CC/C=C(\C)CC/C=C(\C)CC/C=C(\C)CCC=C(C)C)=C(C)C1=O [Q10],"NADH:O2 oxidoreduction with AOX, nanodiscs",Pp-CI (Q10-binding site),confirming the rapid redox-cycling turnover of the Q10 contained in the ND bilayer
NC(=O)C1=CN([C@@H]2O[C@H](COP(=O)(O)OP(=O)(O)OC[C@H]3O[C@@H](n4cnc5c(N)ncnc54)[C@H](OP(=O)(O)O)[C@@H]3O)[C@@H](O)[C@H]2O)C=CC1 [NADPH],cryo-EM structure,NDUFA9 subunit of Pp-CI,bound in NDUFA9
Cc1cc2nc3c(=O)[nH]c(=O)nc-3n(C[C@H](O)[C@H](O)[C@H](O)COP(=O)(O)O)c2cc1C [FMN],cryo-EM structure,[1],canonical CI subunits that contain the FMN in the active site for NADH oxidation
CC(=O)c1ccc[n+]([C@@H]2O[C@H](COP(=O)(O)OP(=O)(O)OC[C@H]3O[C@@H](n4cnc5c(N)ncnc54)[C@H](O)[C@@H]3O)[C@@H](O)[C@H]2O)c1 [APAD^+],NADH:APAD+ oxidoreduction in proteoliposomes,[2],the consistent rates of the flavin-localized NADH:APAD^+ reaction
NC(=O)C1=CN([C@@H]2O[C@H](COP(=O)(O)OP(=O)(O)OC[C@H]3O[C@@H](n4cnc5c(N)ncnc54)[C@H](O)[C@@H]3O)[C@@H](O)[C@H]2O)C=CC1 [NADH],"NADH:APAD+ and NADH:O2 oxidoreduction, absorbance 340-380 nm",[3],the consistent rates of the flavin-localized NADH:APAD^+ reaction
B1,percent of flavoprotein-containing particles with NUQM bound,[4],68.1%
same,"percent of outward-facing, flavoprotein-bound particles with NUQM bound",[5],77%

# Reference: article PMC12487887, “Global conformations of Pichia pastoris complex I are distinguished by the binding of a unique interdomain bridging subunit” (Science Advances, 2025)
